Experimental data reported in article PMC7340254, “Structure-based screening of binding affinities via small-angle X-ray scattering” (IUCrJ, 2020).
Where two headings read alike, the source gives them in different places.

Tests used:
[1] = target: T1, aspartate/glutamate-binding protein (DEBP) (Escherichia coli, UniProt P37902); experiment: SAXS-based ligand titration; set-up: species or system E. coli
T1 construct: made in house; host or cells: E. coli BL21(DE3)
Text: Their preliminary results have been excluded from this report.

DEBP = target: DEBP; set-up: method as in Clifton & Jackson (2016); conditions: ref Clifton & Jackson (2016), read-out: K D (ITC, literature); cited from earlier work
GlnBP = target: GlnBP; set-up: method as in Clifton & Jackson (2016); conditions: ref Clifton & Jackson (2016), read-out: K D (ITC, literature); cited from earlier work
[2] = target: T2, histidine-binding protein (HisBP) (Escherichia coli, UniProt P0AEU0); experiment: biochemical
Method: (§1) Titrations were conducted at fixed protein concentrations to exclude signal-to-noise factors. An initial mass concentration of 2.0 or 4.0 mg ml^−1 was employed in prospective experiments, then scaled to 2.0, 1.0, 0.5 and 0.25 mg ml^−1 in later concentration-variation studies. […] A total of eight beamline experiments were conducted, using the automated sample changing environments available on site, operated in constant-flow mode: three times at ESRF BM29, three at DESY P12, once at Australian Synchrotron SAXS/WAXS and once at Diamond B21. […] Furthermore, experiments at ESRF BM29 and Diamond B21 were carried out on site, while the DESY P12 experiment was carried out by mail-in. For these measurements, samples were prepared by pipetting ligand–protein mixtures onto 96-well plates prior to transport. As for the Australian Synchrotron measurements, apo–HisBP was lyophilized in its final buffer and reconstituted on site using pure H2O and then mixed with the ligands in 96-well plates.
(§2) Buffer-subtracted intensities provided from respective synchrotron pipelines were used as starting points for analysis. […] Thus, an intermediate value of 7.2 nm was fixed for all computations involving D max including V R.
(§3) This was used to assist in locating data points affected by sample handling errors or measurement failures, along with detectable aggregation. The ideal minimum angle after removal of parasitic scattering is 0.1–0.15 nm^−1, although a more conservative cutoff was used to collectively eliminate residual aggregation. The maximum usable q was determined by visual inspection of noise. The final ranges used across all HisBP beamline sessions were: 0.2–2.0 nm^−1 at 20 µM and below, 0.25–2.5 nm^−1 at 40 µM, and 0.3–3 nm^−1 above 80 µM. The q-ranges for DEBP and GlnBP were set to 0.1–2.8 nm^−1.
(§4) A common scattering reference is created per HisBP concentration and per beamline experiment by averaging apo protein replicates after discarding outliers. This reference is used for both V R and χlin computations.
(§5) To fit binding curves against metrics, we consider all titrations conducted per protein concentration per beamline experiment as a single set, after removing data points resulting from aggregation, preparation errors or measurement errors. […] Since the two-state binding curve at constant [R] cannot effectively discriminate between K D values much larger or smaller than [R], fitted K D values are limited to within four orders of magnitude of the receptor concentration (cf. Fig. S1). […] Error bars indicate σ of logK D from the ensemble of replicate predictions. For metrics where uncertainty was not computed (V R and V P), the uncertainty was estimated by single-point removal, where K D was recomputed after removal of each titration point. The σ of the resulting replicates are taken as the σ of logK D. To eliminate cases where the fitting process fails due to ill-constrained parameters, replicates were discarded if the fitted apo–holo differences were >3σ from the mean value of all replicates.

[3] = target: T2, histidine-binding protein (HisBP); conditions: His:HisBP
Method: as §1, §2, §3, §4, §5

HisBP = target: HisBP; set-up: method as in Paul et al. (2016); conditions: ref Paul et al. (2016), read-out: K D (ITC, literature); cited from earlier work
[4] = target: T2, histidine-binding protein (HisBP); experiment: biochemical; remark: listed apart in the source
Method: All ITC measurements were conducted on a Malvern MicroCal PEAQ ITC at 20°C with stirring at 200 rev min^−1 using the same buffer as in SAXS measurements. The cell was initially loaded with 200 µl of 20 µM protein with an initial ligand concentration of 200 µM in the syringe to quantify His:HisBP binding. This was further adjusted in subsequent runs to resolve weaker interactions as necessary.

[5] = K D fitted to SAXS V R titration curves, AustSynch, 20s exposure, […] 10^13 photons, HisBP 19 µM
[6] = K D fitted to SAXS V R titration curves, AustSynch, 20s exposure, […] 10^13 photons, HisBP […] µM
[7] = K D fitted to SAXS V R titration curves, AustSynch, 20s exposure, […] 10^13 photons, HisBP 76 µM
[8] = K D fitted to SAXS V R titration curves, DESY, 4s exposure, […] 10^13 photons, HisBP 10 µM
[9] = K D fitted to SAXS V R titration curves, DESY, 4s exposure, […] 10^13 photons, HisBP 20 µM
[10] = K D fitted to SAXS V R titration curves, DESY, 4s exposure, […] 10^13 photons, HisBP 40 µM
[11] = K D fitted to SAXS V R titration curves, DESY, 4s exposure, […] 10^13 photons, HisBP 80 µM
[12] = K D fitted to SAXS V R titration curves, Diamond, 40s exposure, […] 10^14 photons, HisBP 10 µM
[13] = K D fitted to SAXS V R titration curves, Diamond, 40s exposure, […] 10^14 photons, HisBP 20 µM
[14] = K D fitted to SAXS V R titration curves, Diamond, 40s exposure, […] 10^14 photons, HisBP 40 µM
[15] = K D fitted to SAXS V R titration curves, Diamond, 40s exposure, […] 10^14 photons, HisBP 80 µM
[16] = K D fitted to SAXS V R titration curves, ESRF, 5s exposure, 3.0 × 10^12 photons, HisBP 160 µM
[17] = KD fitted to SAXS Rg curves, AustSynch, 20s exposure, HisBP […] µM
[18] = KD fitted to SAXS Rg curves, AustSynch, 20s exposure, HisBP 76 µM
[19] = KD fitted to SAXS Rg curves, DESY, 4s exposure, HisBP 10 µM
[20] = KD fitted to SAXS Rg curves, DESY, 4s exposure, HisBP 20 µM
[21] = KD fitted to SAXS Rg curves, DESY, 4s exposure, HisBP 40 µM
[22] = KD fitted to SAXS Rg curves, DESY, 4s exposure, HisBP 80 µM
[23] = KD fitted to SAXS Rg curves, ESRF, 5s exposure, HisBP 160 µM
[24] = KD fitted to SAXS Vc curves, AustSynch, 20s exposure, HisBP […] µM
[25] = KD fitted to SAXS Vc curves, AustSynch, 20s exposure, HisBP 76 µM
[26] = KD fitted to SAXS Vc curves, DESY, 4s exposure, HisBP 40 µM
[27] = KD fitted to SAXS Vc curves, DESY, 4s exposure, HisBP 80 µM
[28] = KD fitted to SAXS Vc curves, ESRF, 5s exposure, HisBP 160 µM
[29] = KD fitted to SAXS χlin. curves, AustSynch, 20s exposure, HisBP […] µM
[30] = KD fitted to SAXS χlin. curves, AustSynch, 20s exposure, HisBP 76 µM
[31] = KD fitted to SAXS χlin. curves, DESY, 4s exposure, HisBP 10 µM
[32] = KD fitted to SAXS χlin. curves, DESY, 4s exposure, HisBP 20 µM
[33] = KD fitted to SAXS χlin. curves, DESY, 4s exposure, HisBP 40 µM
[34] = KD fitted to SAXS χlin. curves, DESY, 4s exposure, HisBP 80 µM
[35] = KD fitted to SAXS χlin. curves, Diamond, 40s exposure, HisBP 40 µM
[36] = KD fitted to SAXS χlin. curves, Diamond, 40s exposure, HisBP 80 µM
[37] = KD fitted to SAXS χlin. curves, ESRF, 5s exposure, HisBP 152 µM

T1 sequence (P37902 28-302): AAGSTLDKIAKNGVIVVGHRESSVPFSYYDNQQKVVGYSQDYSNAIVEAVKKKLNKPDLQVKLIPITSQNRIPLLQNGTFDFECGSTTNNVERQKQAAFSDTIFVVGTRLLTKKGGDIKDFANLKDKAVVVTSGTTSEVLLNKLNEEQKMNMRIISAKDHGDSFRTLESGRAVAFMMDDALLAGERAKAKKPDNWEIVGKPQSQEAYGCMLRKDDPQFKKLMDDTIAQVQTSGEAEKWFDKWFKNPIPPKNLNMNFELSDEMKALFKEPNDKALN
T2 sequence (P0AEU0 23-260): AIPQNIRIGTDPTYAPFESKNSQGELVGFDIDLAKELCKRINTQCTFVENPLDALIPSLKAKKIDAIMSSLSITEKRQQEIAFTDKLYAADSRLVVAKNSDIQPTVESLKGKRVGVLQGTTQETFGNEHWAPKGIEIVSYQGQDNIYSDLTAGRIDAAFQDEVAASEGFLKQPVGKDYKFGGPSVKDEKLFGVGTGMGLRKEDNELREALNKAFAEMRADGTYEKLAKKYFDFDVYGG

In the case of `NC(=O)C[C@H](N)C(=O)O` [Asn], the “binding suggested by SAXS titrations” value ([1]; DEBP, 2 mg ml^−1, 10^12 photons) is reported as “unexpected binding”.

In the case of `N[C@@H](CC(=O)O)C(=O)O` [Asp, aspartate], the Kd (DEBP) is listed as 1.73 ± 0.49 µM.

For `NC(=O)CC[C@H](N)C(=O)O` [Gln, glutamine], the Kd (GlnBP) is listed as 0.106 ± 0.065 µM.

For `N[C@@H](CCC(=O)O)C(=O)O` [Glu, glutamate], the “SAXS R g Exp. (saturated)” value ([1]; Glu:DEBP, ligand-excess conditions) is given as 20.6 ± 1.3 Å, the “SAXS ΔR g” value ([1]; Glu:DEBP, saturated versus apo) is given as −2.6 Å and the Kd (DEBP) is given as 0.334 ± 0.12 µM.

Molecule `N[C@@H](Cc1c[nH]cn1)C(=O)O` [His, histidine] has a Kd [2, 5] of 0.062 ± 0.028 µM, a Kd [2, 6] of 1.5 ± 0.7 µM and a Kd [2, 7] of 3.6 ± 0.74 µM. The Kd [2, 8] was 84 ± 68 µM, the Kd [2, 9] was 1 ± 0.19 µM and the Kd [2, 10] was 3.7 ± 0.58 µM. For the same molecule, the Kd [2, 11] was 6.4 ± 1.1 µM, the Kd [2, 12] was 0.0014 ± 0.00092 µM and the Kd [2, 13] was 0.0051 ± 0.0041 µM. For the same molecule, the Kd [2, 14] was 0.013 ± 0.011 µM, the Kd [2, 15] was 1.3 ± 0.5 µM and the Kd ([2]; K D fitted to SAXS V R titration curves, ESRF, 5s exposure, 3.0 × 10^12 photons, HisBP […] µM) was 0.24 ± 0.14 µM. For the same molecule, the Kd [2, 16] was 0.37 ± 0.47 µM, the Kd [2, 17] was 6.3 ± 0.87 µM and the Kd [2, 18] was 1.7 ± 0.87 µM. The Kd [2, 19] was 100 ± 140 µM, the Kd [2, 20] was 0.0027 ± 0.0047 µM and the Kd [2, 21] was 4.2 ± 2.4 µM. It also gave a Kd [2, 22] of 8.2 ± 1.8 µM, a Kd ([2]; KD fitted to SAXS Rg curves, Diamond, 40s exposure, HisBP 10 µM) of 0.018 µM and a Kd ([2]; KD fitted to SAXS Rg curves, Diamond, 40s exposure, HisBP 20 µM) of 0.015 µM. For the same molecule, the Kd ([2]; KD fitted to SAXS Rg curves, Diamond, 40s exposure, HisBP 80 µM) was 2.2 ± 3.1 µM, the Kd ([2]; KD fitted to SAXS Rg curves, ESRF, 5s exposure, HisBP […] µM) was 0.16 µM and the Kd [2, 23] was 0.61 ± 0.12 µM. For the same molecule, the Kd ([2]; KD fitted to SAXS Vc curves, AustSynch, 20s exposure, HisBP 19 µM) was 0.16 µM, the Kd [2, 24] was 5.3 ± 3.7 µM and the Kd [2, 25] was 25 ± 8.1 µM. For the same molecule, the Kd [2, 26] was 19 µM, the Kd [2, 27] was 5.8 µM and the Kd ([2]; KD fitted to SAXS Vc curves, Diamond, 40s exposure, HisBP 80 µM) was 9.9 µM. The Kd ([2]; KD fitted to SAXS Vc curves, ESRF, 5s exposure, HisBP 7.6 µM) was 2.8 µM, the Kd ([2]; KD fitted to SAXS Vc curves, ESRF, 5s exposure, HisBP […] µM) was 200 ± 490 µM and the Kd [2, 28] was 0.88 ± 2.4 µM. It also gave a Kd ([2]; KD fitted to SAXS χlin. curves, AustSynch, 20s exposure, HisBP 19 µM) of 1.2 µM, a Kd [2, 29] of 4.5 ± 1.5 µM and a Kd [2, 30] of 5.1 ± 0.75 µM. For the same molecule, the Kd [2, 31] was 4.4 ± 2.8 µM, the Kd [2, 32] was 2.9 ± 1.5 µM and the Kd [2, 33] was 13 ± 3.5 µM. For the same molecule, the Kd [2, 34] was 15 ± 1.9 µM, the Kd ([2]; KD fitted to SAXS χlin. curves, Diamond, 40s exposure, HisBP 20 µM) was 0.07 µM and the Kd [2, 35] was 4.3 ± 4.7 µM. For the same molecule, the Kd [2, 36] was 20 ± 3.4 µM, the Kd ([2]; KD fitted to SAXS χlin. curves, ESRF, 5s exposure, HisBP 7.6 µM) was 0.5 µM and the Kd ([2]; KD fitted to SAXS χlin. curves, ESRF, 5s exposure, HisBP […] µM) was 0.099 µM. The Kd [2, 37] was 0.32 ± 0.051 µM, the “SAXS R g Exp. (saturated)” value ([3]; ligand-excess conditions) was 18.3 ± 1.0 Å and the “SAXS ΔR g” value ([3]; saturated versus apo) was −1.3 Å. The Kd (HisBP) was 0.064 ± 0.01 µM and the Kd [4] was 0.048 ± 0.0052 µM.

With `NCCCC[C@H](N)C(=O)O` [Lys, lysine] the Kd [2, 5] was 110 ± 10 µM, the Kd [2, 6] was 32 ± 4.6 µM and the Kd [2, 7] was 95 ± 11 µM. For the same molecule, the Kd [2, 8] was 0.0023 ± 0.0016 µM, the Kd [2, 9] was 61 ± 6.4 µM and the Kd [2, 10] was 720 ± 350 µM. It also gave a Kd [2, 11] of 58 ± 7.5 µM, a Kd [2, 12] of 230 ± 200 µM and a Kd [2, 13] of 47 ± 3.6 µM. It also gave a Kd [2, 14] of 320 ± 210 µM, a Kd [2, 15] of 89 ± 9.6 µM and a Kd [2, 16] of 49 ± 4.1 µM. For the same molecule, the Kd ([2]; KD fitted to SAXS Rg curves, AustSynch, 20s exposure, HisBP 19 µM) was 460 ± 230 µM, the Kd [2, 17] was 340 ± 120 µM and the Kd [2, 18] was 0.031 ± 0.025 µM. For the same molecule, the Kd [2, 19] was 1.3 ± 2.5 µM, the Kd [2, 20] was 38 ± 28 µM and the Kd [2, 21] was 0.086 µM. It also gave a Kd [2, 22] of 36 ± 42 µM, a Kd ([2]; KD fitted to SAXS Rg curves, Diamond, 40s exposure, HisBP 40 µM) of 1500 ± 3200 µM and a Kd [2, 23] of 71 ± 8.9 µM. For the same molecule, the Kd [2, 24] was 450 ± 510 µM, the Kd [2, 25] was 9.5 µM and the Kd ([2]; KD fitted to SAXS Vc curves, DESY, 4s exposure, HisBP 10 µM) was 0.18 µM. For the same molecule, the Kd ([2]; KD fitted to SAXS Vc curves, DESY, 4s exposure, HisBP 20 µM) was 44 µM, the Kd [2, 26] was 2.8 µM and the Kd [2, 27] was 9 µM. It also gave a Kd ([2]; KD fitted to SAXS Vc curves, Diamond, 40s exposure, HisBP 40 µM) of 57 µM, a Kd [2, 28] of 280 ± 450 µM and a Kd [2, 29] of 150 ± 46 µM. The Kd [2, 30] was 130 ± 14 µM, the Kd [2, 31] was 0.46 ± 0.5 µM and the Kd [2, 32] was 2.1 ± 3.2 µM. The Kd [2, 33] was 160 ± 230 µM, the Kd [2, 34] was 150 ± 40 µM and the Kd [2, 35] was 4500 ± 3400 µM. The Kd [2, 36] was 260 ± 150 µM, the Kd [2, 37] was 180 ± 15 µM and the Kd (HisBP) was 19.5 ± 6 µM. It also gave a Kd [4] of 62 ± 11 µM.

In the case of `NCCC[C@H](N)C(=O)O` [Orn, ornithine], the Kd (HisBP) is given as 72 ± 4 µM.
